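96-well plates; 48 h exposure; 5 concentrations. Endpoints by linear interpolation between flanking doses. Not reached: highest tested concentration assigned. GI50 marks 50% less growth.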 Active and inactive are the calls of the source. No stated cut-off is given here; in the data, active = GI50 up to about 1.1 µM and inactive = higher.
Columns and labels:
Experiment in all cases: growth of human tumour cells (NCI), 48 h
U-251 = system: U-251
HOP-92 = system: HOP-92
UACC-62 = system: UACC-62
NCI-H522 = system: NCI-H522
HCC 2998 = system: HCC 2998
NCI-H23 = system: NCI-H23
UO-31 = system: UO-31
CCRF-CEM = system: CCRF-CEM
RXF 393 = system: RXF 393
HT-29 = system: HT-29
NCI-H460 = system: NCI-H460
A498 = system: A498
SNB-75 = system: SNB-75
M14 = system: M14

Measured: GI50

COc1ccc(NC(=O)CC(=O)n2nc(-c3ccccc3)c(/N=N/c3ccccc3C(=O)O)c2-c2ccccc2)cc1
inactive: U-251 42.6 µM | HOP-92 18.5 µM | UACC-62 > 100 µM | NCI-H522 > 100 µM | HCC 2998 > 100 µM | NCI-H23 > 100 µM | UO-31 > 100 µM | CCRF-CEM > 100 µM | RXF 393 28.8 µM

c1ccc2cc(-c3cc4ccccc4s3)ccc2c1
inactive: U-251 > 100 µM | HT-29 > 100 µM | NCI-H460 > 100 µM | A498 > 100 µM | HOP-92 > 100 µM | UACC-62 > 100 µM | NCI-H522 > 100 µM | SNB-75 23.1 µM | M14 > 100 µM | HCC 2998 > 100 µM | NCI-H23 > 100 µM | UO-31 > 100 µM | CCRF-CEM > 100 µM

COc1ccc2c(C(=O)O)cc3cc(OC)c(OC)cc3c2c1
inactive: U-251 > 100 µM | HT-29 > 100 µM | NCI-H460 > 100 µM | HOP-92 > 100 µM | UACC-62 > 100 µM | NCI-H522 > 100 µM | SNB-75 > 100 µM | M14 > 100 µM | HCC 2998 > 100 µM | NCI-H23 > 100 µM | UO-31 > 100 µM | CCRF-CEM > 100 µM | RXF 393 > 100 µM

O=[N+]([O-])c1ccc(/C=C/c2ccc(/C=C/c3ccc([N+](=O)[O-])cc3[N+](=O)[O-])cc2)c([N+](=O)[O-])c1
inactive: U-251 > 100 µM | HT-29 > 100 µM | NCI-H460 > 100 µM | A498 > 100 µM | UACC-62 > 100 µM | SNB-75 > 100 µM | M14 > 100 µM | HCC 2998 > 100 µM | NCI-H23 > 100 µM | UO-31 > 100 µM | CCRF-CEM > 100 µM | RXF 393 > 100 µM

COC1/C(=C\C(C)=O)c2ccccc2N1C(C)=O (configuration not stated)
inactive: U-251 > 100 µM | HT-29 > 100 µM | NCI-H460 > 100 µM | A498 > 100 µM | HOP-92 > 100 µM | UACC-62 > 100 µM | SNB-75 > 100 µM | M14 > 100 µM | HCC 2998 > 100 µM | NCI-H23 > 100 µM | UO-31 > 100 µM | CCRF-CEM > 100 µM | RXF 393 > 100 µM

CCn1c(O)c(C(=O)Nc2cccs2)c(=O)n(CC)c1=S
inactive: U-251 11.4 µM | HT-29 17.6 µM | NCI-H460 15.5 µM | A498 19.5 µM | HOP-92 21 µM | UACC-62 16 µM | NCI-H522 18 µM | SNB-75 17.5 µM | M14 19.8 µM | NCI-H23 15.8 µM | CCRF-CEM 26.7 µM

CC(=O)CC(=O)CCCC(=O)Nc1ccc(Cl)cc1C
inactive: U-251 > 100 µM | HT-29 > 100 µM | NCI-H460 > 100 µM | A498 > 100 µM | HOP-92 > 100 µM | UACC-62 > 100 µM | NCI-H522 > 100 µM | M14 > 100 µM | HCC 2998 > 100 µM | NCI-H23 > 100 µM | UO-31 > 100 µM | CCRF-CEM > 100 µM

O=[N+]([O-])c1cc2c(cc1O)[nH]c1cccc([N+](=O)[O-])c12
inactive: HT-29 > 100 µM | NCI-H460 > 100 µM | NCI-H522 > 100 µM | SNB-75 > 100 µM | M14 > 100 µM | HCC 2998 > 100 µM | NCI-H23 > 100 µM | UO-31 > 100 µM | CCRF-CEM > 100 µM

Reference: ChEMBL document CHEMBL1201862, “PubChem BioAssay data set” (2004)
